Experimental data from US20250361233A1, “Compounds For Activating Serotonin Receptor” (PSYLO PTY LTD, priority 2023, published 2025).
pEC50: −log10 of the molar value.

Legend:
Format in all cases: cell-based
5-HT2A receptor = target: T1, 5-HT2A receptor (Homo sapiens, UniProt P28223); assay: FLIPR Ca2+ flux functional assay, agonist activity at 5-HT2A; settings: stably transfected HEK293 cells
T1 construct: host or cells: HEK293
Method: (§1) Functional assays 5-HT2A, 5-HT2B and 5-HT2C Receptors
(§2) Activity at 5-HT2A, 5-HT2B and 5-HT2C receptors was determined using a FLIPR Ca2+ flux assay at WuXi AppTec Co. Ltd. (Hong Kong) Discovery Biology Unit according to their standard protocols. Briefly, stably transfected cells expressing the receptor of interest (HEK293 for 5-HT2A and 5-HT2C; CHO-K1 for 5-HT2B) were grown and plated in a 384 well plate and incubated at 37° C. and 5% CO2 overnight. A 250 mM stock solution of probenecid in FLIPR calcium assay buffer (10 mL) was freshly prepared and combined with a fluorescent dye (Fluo-4 Direct) to give a final assay concentration of 2.5 mM. Reference compounds were 4-fold serially diluted and the screening compounds were 3-fold serially diluted in 100% DMSO for 10 points using Agilent Bravo, and 750 nL was added to a 384 well compound plate using Echo along with 30 μL assay buffer. The fluorescent dye was then added to the assay plate along with assay buffer to a final volume of 40 μL. The cell plate was incubated for 50 min at 37° C. and 5% CO2 and placed into the FLIPR Tetra along with the compound plate. 10 μL of references and compounds were then transferred from the compound plate into the cell plate and the fluorescent signal was read.

5-HT2C receptor = target: T2, 5-HT2C receptor (Homo sapiens, UniProt P28335); assay: FLIPR Ca2+ flux functional assay, agonist activity at 5-HT2C; settings: stably transfected HEK293 cells
T2 construct: host or cells: HEK293
T2 sequence (P28335 33-458): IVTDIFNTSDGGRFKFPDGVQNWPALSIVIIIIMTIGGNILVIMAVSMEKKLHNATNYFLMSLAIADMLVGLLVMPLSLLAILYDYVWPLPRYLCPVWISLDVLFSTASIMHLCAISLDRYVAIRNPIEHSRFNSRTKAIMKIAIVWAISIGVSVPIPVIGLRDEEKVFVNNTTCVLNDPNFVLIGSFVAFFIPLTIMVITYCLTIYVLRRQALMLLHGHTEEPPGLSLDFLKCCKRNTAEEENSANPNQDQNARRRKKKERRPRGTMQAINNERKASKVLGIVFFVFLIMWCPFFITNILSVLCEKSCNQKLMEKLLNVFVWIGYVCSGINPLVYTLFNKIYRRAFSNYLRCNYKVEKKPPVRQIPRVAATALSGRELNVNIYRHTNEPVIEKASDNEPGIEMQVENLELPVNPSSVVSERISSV
Method: as §1, §2

5-HT2B receptor = target: T3, 5-HT2B receptor (Homo sapiens, UniProt P41595); assay: 5-HT2B activation in a similar assay at a single 10 μM concentration
T3 construct: host or cells: CHO-K1
T3 sequence (P41595 whole entry): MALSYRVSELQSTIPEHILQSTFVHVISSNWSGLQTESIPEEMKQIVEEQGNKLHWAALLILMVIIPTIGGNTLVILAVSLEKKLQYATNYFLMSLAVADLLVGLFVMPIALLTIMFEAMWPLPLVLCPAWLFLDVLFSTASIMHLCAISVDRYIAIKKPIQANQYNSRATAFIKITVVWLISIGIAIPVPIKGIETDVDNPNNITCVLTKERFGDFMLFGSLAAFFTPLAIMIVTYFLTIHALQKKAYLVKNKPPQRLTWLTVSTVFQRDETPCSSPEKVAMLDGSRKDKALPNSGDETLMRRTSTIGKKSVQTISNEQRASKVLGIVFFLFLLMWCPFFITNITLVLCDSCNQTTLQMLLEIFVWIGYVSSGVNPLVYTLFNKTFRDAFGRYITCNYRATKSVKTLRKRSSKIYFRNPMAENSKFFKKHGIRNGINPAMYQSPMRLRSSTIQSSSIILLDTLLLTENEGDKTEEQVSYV
Method: Activation data are provided in a similar assay tested at a single 10 μM concentration.

T1 sequence (P28223 whole entry): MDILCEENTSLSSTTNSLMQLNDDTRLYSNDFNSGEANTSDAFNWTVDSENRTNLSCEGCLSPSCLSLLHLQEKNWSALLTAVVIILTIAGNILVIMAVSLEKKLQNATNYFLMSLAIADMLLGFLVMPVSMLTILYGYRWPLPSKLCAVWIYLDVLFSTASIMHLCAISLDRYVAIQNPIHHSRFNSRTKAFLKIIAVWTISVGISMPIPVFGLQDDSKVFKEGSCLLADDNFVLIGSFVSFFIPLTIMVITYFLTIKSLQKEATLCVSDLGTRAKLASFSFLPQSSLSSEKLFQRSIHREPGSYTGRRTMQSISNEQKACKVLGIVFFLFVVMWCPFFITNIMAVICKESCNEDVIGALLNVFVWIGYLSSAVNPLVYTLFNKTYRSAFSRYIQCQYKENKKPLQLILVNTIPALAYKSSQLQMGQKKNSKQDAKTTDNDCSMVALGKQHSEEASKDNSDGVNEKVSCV

Fc1cnc2[nH]cc(CCNC3CC3)c2c1 [Compound S2, N-(2-(5-fluoro-1H-pyrrolo[2,3-b]pyridin-3-yl)ethyl)cyclopropanamine]
pEC50 (5-HT2A receptor): 7.97
Emax (5-HT2A receptor): 92%
pEC50 (5-HT2C receptor): 6.73
Emax (5-HT2C receptor): 92%
5-HT2B % Activation @ 10 μM (5-HT2B receptor): 74%

Fc1cnc2[nH]cc(CCN3CCCC3)c2c1 [Compound S6, 5-fluoro-3-(2-(pyrrolidin-1-yl)ethyl)-1H-pyrrolo[2,3-b]pyridine]
pEC50 (5-HT2A receptor): 7.42
Emax (5-HT2A receptor): 81%
pEC50 (5-HT2C receptor): 5.73
Emax (5-HT2C receptor): 81%
5-HT2B % Activation @ 10 μM (5-HT2B receptor): 16%

Fc1cnc2[nH]cc(CCN3CCCCC3)c2c1 [Compound S7, 5-fluoro-3-(2-(piperidin-1-yl)ethyl)-1H-pyrrolo[2,3-b]pyridine]
pEC50 (5-HT2A receptor): 6.28
Emax (5-HT2A receptor): 70%
pEC50 (5-HT2C receptor): < 5.00
Emax (5-HT2C receptor): 2%
5-HT2B % Activation @ 10 μM (5-HT2B receptor): 0%

Fc1cnc2[nH]cc(CCNCC3CC3)c2c1 [Compound S17, N-(cyclopropylmethyl)-2-(5-fluoro-1H-pyrrolo[2,3-b]pyridin-3-yl)ethan-1-amine]
pEC50 (5-HT2A receptor): 6.87
Emax (5-HT2A receptor): 84%
pEC50 (5-HT2C receptor): 5.39
Emax (5-HT2C receptor): 35%
5-HT2B % Activation @ 10 μM (5-HT2B receptor): 7%

Fc1cnc2[nH]cc(CCN3CCC4CC43)c2c1 (centres unmarked) [Compound S25, 3-(2-(2-azabicyclo[3.1.0]hexan-2-yl)ethyl)-5-fluoro-1H-pyrrolo[2,3-b]pyridine]
pEC50 (5-HT2A receptor): 8.05
Emax (5-HT2A receptor): 87%
pEC50 (5-HT2C receptor): 7.12
Emax (5-HT2C receptor): 84%
5-HT2B % Activation @ 10 μM (5-HT2B receptor): 41%

CN(CCc1c[nH]c2ncc(OC(F)(F)F)cc12)C1CC1 [Compound S41, N-methyl-N-(2-(5-(trifluoromethoxy)-1H-pyrrolo[2,3-b]pyridin-3-yl)ethyl)cyclopropanamine]
pEC50 (5-HT2A receptor): 6.09
Emax (5-HT2A receptor): 41%
pEC50 (5-HT2C receptor): < 5.00
Emax (5-HT2C receptor): 0%
5-HT2B % Activation @ 10 μM (5-HT2B receptor): 0%

CN(CCc1c[nH]c2ncc(Cl)cc12)C1CC1 [Compound S42, N-(2-(5-chloro-1H-pyrrolo[2,3-b]pyridin-3-yl)ethyl)-N-methylcyclopropanamine]
pEC50 (5-HT2A receptor): 6.84
Emax (5-HT2A receptor): 58%
pEC50 (5-HT2C receptor): 5.96
Emax (5-HT2C receptor): 75%
5-HT2B % Activation @ 10 μM (5-HT2B receptor): 15%

COc1cnc2[nH]cc(CCN(C)C3CC3)c2c1 [Compound S44, N-(2-(5-methoxy-1H-pyrrolo[2,3-b]pyridin-3-yl)ethyl)-N-methylcyclopropanamine]
pEC50 (5-HT2A receptor): 8.02
Emax (5-HT2A receptor): 82%
pEC50 (5-HT2C receptor): 5.55
Emax (5-HT2C receptor): 45%
5-HT2B % Activation @ 10 μM (5-HT2B receptor): 1%

COc1cnc2[nH]cc(CCN3CCC3)c2c1 [Compound S45, 3-(2-(azetidin-1-yl)ethyl)-5-methoxy-1H-pyrrolo[2,3-b]pyridine]
pEC50 (5-HT2A receptor): 7.62
Emax (5-HT2A receptor): 86%
pEC50 (5-HT2C receptor): < 5.00
Emax (5-HT2C receptor): 11%
5-HT2B % Activation @ 10 μM (5-HT2B receptor): 0%

COc1cnc2[nH]cc(CCN3CCCC3)c2c1 [Compound S46, 5-methoxy-3-(2-(pyrrolidin-1-yl)ethyl)-1H-pyrrolo[2,3-b]pyridine]
pEC50 (5-HT2A receptor): 7.33
Emax (5-HT2A receptor): 91%
pEC50 (5-HT2C receptor): 5.38
Emax (5-HT2C receptor): 43%
5-HT2B % Activation @ 10 μM (5-HT2B receptor): 3%

COc1cnc2[nH]cc(CCN3CCCCC3)c2c1 [Compound S47, 5-methoxy-3-(2-(piperidin-1-yl)ethyl)-1H-pyrrolo[2,3-b]pyridine]
pEC50 (5-HT2A receptor): 6.17
Emax (5-HT2A receptor): 65%
pEC50 (5-HT2C receptor): < 5.00
Emax (5-HT2C receptor): 8%
5-HT2B % Activation @ 10 μM (5-HT2B receptor): 0%

C[C@H]1CCN1CCc1c[nH]c2ncc(F)cc12 [Compound S48, (S)-5-fluoro-3-(2-(2-methylazetidin-1-yl)ethyl)-1H-pyrrolo[2,3-b]pyridine]
pEC50 (5-HT2A receptor): 6.94
Emax (5-HT2A receptor): 82%
pEC50 (5-HT2C receptor): 5.40
Emax (5-HT2C receptor): 44%
5-HT2B % Activation @ 10 μM (5-HT2B receptor): 2%

C[C@@H]1CCN1CCc1c[nH]c2ncc(F)cc12 [Compound S49, (R)-5-fluoro-3-(2-(2-methylazetidin-1-yl)ethyl)-1H-pyrrolo[2,3-b]pyridine]
pEC50 (5-HT2A receptor): 7.18
Emax (5-HT2A receptor): 78%
pEC50 (5-HT2C receptor): < 5.00
Emax (5-HT2C receptor): 28%
5-HT2B % Activation @ 10 μM (5-HT2B receptor): 0%
